The test deals with T1, human PF4 (Homo sapiens, UniProt P02776).
T1 construct: PF4 is a 70 amino acid, lysine-rich 7.8 kDa platelet-specific protein; made in house; host or cells: Escherichia coli BL21DE3 pLysS (pT7-7) and/or Drosophila S2 cells
T1 sequence (P02776 32-101): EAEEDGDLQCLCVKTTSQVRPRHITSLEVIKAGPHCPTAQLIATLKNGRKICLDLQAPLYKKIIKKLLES
Description: Inhibition of PF4 tetramer formation (BS3 cross-linking, SDS-PAGE). Format: biochemical. Conditions: for IC50: read-out: IC50 of PF4 tetramer formation inhibition; for inhibition at 5 µM: 5 μM inhibitor; for inhibition at 5 µM / inhibition at 10 µM: read-out: % inhibition of PF4 tetramer formation at single concentration of inhibitor; for inhibition at 10 µM: 10 μM inhibitor (column A). The procedure:
Compounds of Examples 1-38, 65-301, 303, 305, 307, 309, 311, 313, 314, 316, and 318-404 were tested using SDS PAGE analysis of BS3 crosslinked PF4 for their ability to prevent PF4 tetramer formation. […] See, Suvarna et al., Throm. Res, 122:211-220 (2008), which is hereby incorporated by reference, at least for a detailed description of this technique.
cDNA encoding human PF4 was cloned into the plasmid μMT/BiPN5-His A (Invitrogen Corp., Carlsbad CA) for expression in the Drosophila Expression System (Invitrogen, Carlsbad, CA). Cloning was performed using Bg1 II and Age I cloning sites. A hexanucleotide encoding Bg1 II site was then eliminated by site-directed mutagenesis so that the expressed protein contained full-length wild type (wt) PF4 or PF4^K50E with an identical sequence as their counterparts expressed in E. coli. See, method described in Sachais et al (Sachais, B. S. et al. (2012). Blood 119(25): 5955-5961). PF4 expression was induced by adding copper sulfate (0.5 mM). The induced S2 cells were incubated in serumfree Insect-Xpress™ media (Lonza, Walkersville, MD) for 3-5 days; supernatants were collected, sodium azide (0.02% final concentration) and EDTA (2.5 mM final concentration) were added, and the media were filtered through an Express® PLUS 0.22 μm filter (Millipore Corp., Billerica, MA).
Wild-type (WT) human PF4 in the pT7-7 vector (Novagen, Madison, WI) was expressed in the Escherichia coli strain BL21DE30 pLysS (Stratagene, La Jolla, CA), and purified and characterized as described by Rauova et al. (Rauova, L. et al. (2006). Blood 107(6): 2346-2353) and Park et al., (Blood, 75:1290-1295 (1990)), which are hereby incorporated by reference. Briefly, recombinant protein was isolated from the supernatant of the bacterial lysate by affinity chromatography using a HiTrap high-performance (HP) affinity column. WT PF4 was purified from the media on a heparin HiTrap® column on an ÄTKAPrime™ system (GE Healthcare) at 4° C. in Tris (10 mM), EDTA (1 mM), and pH 8 buffer. Media was loaded in buffer containing NaCl (0.5 M) and PF4 was eluted at 1.8 M NaCl using a linear gradient. Fractions containing purified PF4 as detected by silver staining of 12% NuPAGE Bis-Tris gels (Invitrogen) were pooled, concentrated and buffer exchanged into 50 mM HEPES, 0.5 M NaCl, pH—7.2 using an Amicon® Ultra centrifugal filter (3K NMWL, Millipore Corp). Protein was quantified using a BCA assay.
Compounds of Examples 1-38, 65-196, and 209-228 were then tested for their ability to inhibit PF4 tetramer formation using a cross-linking assay as described in Rauova cited above. Specifically, hPF4 (10 μg/ml) in phosphate-buffered saline (PBS) was incubated at 37° C. for 15 min in the absence of the antagonistic compounds (control sample) and presence of compounds. Cross-linking and SDS-PAGE analysis were then performed as described in “Analysis of PF4 multimerization” of Rauova. The relative amounts of PF4 in each of the monomer, dimer, trimer and tetramer form were calculated by analyzing the samples on a 12% SDS-polyacrylamide gel under reducing conditions. Bands were quantified using the Kodak ID Image Analysis system (Kodak, Rochester, NY). The SigmaMarker™ reagent served as the molecular weight standard. Data was compiled and bar graphed as % PF4 for the tetramer, trimer, dimer, and monomer as a function of concentration for the test and control samples.
This experiment was performed in a manner similar to experiment 1, but PF4 (10 μg/ml) in PBS was independently incubated with compounds of Examples 1-38, 65-196, and 209-228 for 60 min at room temperature, followed by the addition of cross-linking reagent bis(sulfosuccinimidyl)suberate (0.2 mM) for 30 min at room temperature. The reaction was stopped by adding NuPAGE® lithium dodecyl sulfate (LDS) sample buffer, and denatured by heating to 70° C. for 10 min according to the manufacturer's instructions. […]

The structures appear in SMILES notation.

Regarding `CCCCNC(=O)C1C(=O)c2ccc(C(=O)c3ccc4c(c3)C(=O)C(C(=O)NCCCC)C4=O)cc2C1=O` (stereo not shown) [Example 77, N-butyl-5-[2-(butylcarbamoyl)-1,3-dioxo-2,3-dihydro-1H-indene-5-carbonyl]-1,3-dioxo-2,3-dihydro-1H-indene-2-carboxamide], the IC50 was determined as 2300 nM.

For the compound `O=C(c1ccc2c(c1)C(=O)C(C(=O)Nc1ccc(Cl)cc1)C2=O)c1ccc2c(c1)C(=O)C(C(=O)Nc1ccc(Cl)cc1)C2=O` (stereo not shown) [Example 78, N-(4-chlorophenyl)-5-{2-[(4-chlorophenyl)carbamoyl]-1,3-dioxo-2,3-dihydro-1H-indene-5-carbonyl}-1,3-dioxo-2,3-dihydro-1H-indene-2-carboxamide], the IC50 amounted to 1400 nM.

On to `O=C(c1ccc2c(c1)C(=O)C(C(=O)Nc1cccc(Cl)c1)C2=O)c1ccc2c(c1)C(=O)C(C(=O)Nc1cccc(Cl)c1)C2=O` (stereo not shown) [Example 79, N-(3-chlorophenyl)-5-{2-[(3-chlorophenyl)carbamoyl]-1,3-dioxo-2,3-dihydro-1H-indene-5-carbonyl}-1,3-dioxo-2,3-dihydro-1H-indene-2-carboxamide], for which the IC50 was 1000 nM.

`O=C(c1ccc2c(c1)C(=O)C(C(=O)Nc1ccc(Cl)cc1Cl)C2=O)c1ccc2c(c1)C(=O)C(C(=O)Nc1ccc(Cl)cc1Cl)C2=O` (stereo not shown) [Example 80, N-(2,4-dichlorophenyl)-5-{2-[(2,4-dichlorophenyl)carbamoyl]-1,3-dioxo-2,3-dihydro-1H-indene-5-carbonyl}-1,3-dioxo-2,3-dihydro-1H-indene-2-carboxamide]: the inhibition at 5 µM was determined as 90% and the inhibition at 10 µM came out at 90%.

For `Cc1ccccc1NC(=O)C1C(=O)c2ccc(C(=O)c3ccc4c(c3)C(=O)C(C(=O)Nc3ccccc3C)C4=O)cc2C1=O` (stereo not shown) [Example 81, N-(2-methylphenyl)-5-{2-[(2-methylphenyl)carbamoyl]-1,3-dioxo-2,3-dihydro-1H-indene-5-carbonyl}-1,3-dioxo-2,3-dihydro-1H-indene-2-carboxamide], the IC50 came to 4600 nM.

Regarding `O=C(NCCc1ccc(F)cc1)C1C(=O)c2ccc(S(=O)(=O)c3ccc4c(c3)C(=O)C(C(=O)NCCc3ccc(F)cc3)C4=O)cc2C1=O` (stereo not shown) [Example 83, N-[2-(4-fluorophenyl)ethyl]-5-[(2-{[2-(4-fluorophenyl)ethyl]carbamoyl}-1,3-dioxo-2,3-dihydro-1H-inden-5-yl)sulfonyl]-1,3-dioxo-2,3-dihydro-1H-indene-2-carboxamide], the IC50 came out at 2300 nM.

For `O=C(NCCc1cccc(Cl)c1)C1C(=O)c2ccc(S(=O)(=O)c3ccc4c(c3)C(=O)C(C(=O)NCCc3cccc(Cl)c3)C4=O)cc2C1=O` (stereo not shown) [Example 84, N-[2-(3-chlorophenyl)ethyl]-5-[(2-{[2-(3-chlorophenyl)ethyl]carbamoyl}-1,3-dioxo-2,3-dihydro-1H-inden-5-yl)sulfonyl]-1,3-dioxo-2,3-dihydro-1H-indene-2-carboxamide], the IC50 turned out to be 3000 nM.

Take `Cc1ccccc1NC(=O)C1C(=O)c2ccc(S(=O)(=O)c3ccc4c(c3)C(=O)C(C(=O)Nc3ccccc3C)C4=O)cc2C1=O` (stereo not shown) [Example 85, N-(2-methylphenyl)-5-({2-[(2-methylphenyl)carbamoyl]-1,3-dioxo-2,3-dihydro-1H-inden-5-yl}sulfonyl)-1,3-dioxo-2,3-dihydro-1H-indene-2-carboxamide]: the IC50 was found to be 2500 nM.

`O=C(Nc1cccc(Cl)c1)C1C(=O)c2ccc(S(=O)(=O)c3ccc4c(c3)C(=O)C(C(=O)Nc3cccc(Cl)c3)C4=O)cc2C1=O` (stereo not shown) [Example 86, N-(3-chlorophenyl)-5-({2-[(3-chlorophenyl)carbamoyl]-1,3-dioxo-2,3-dihydro-1H-inden-5-yl}sulfonyl)-1,3-dioxo-2,3-dihydro-1H-indene-2-carboxamide]: the inhibition at 5 µM is 73% and the inhibition at 10 µM stood at 90%.

Take `O=C(Nc1ccc(Cl)cc1)C1C(=O)c2ccc(S(=O)(=O)c3ccc4c(c3)C(=O)C(C(=O)Nc3ccc(Cl)cc3)C4=O)cc2C1=O` (stereo not shown) [Example 87, N-(4-chlorophenyl)-5-({2-[(4-chlorophenyl)carbamoyl]-1,3-dioxo-2,3-dihydro-1H-inden-5-yl}sulfonyl)-1,3-dioxo-2,3-dihydro-1H-indene-2-carboxamide]: the IC50 stood at 2500 nM.

For the compound `COCCCNC(=O)C1C(=O)c2ccc(C(=O)c3ccc4c(c3)C(=O)C(C(=O)NCCCOC)C4=O)cc2C1=O` (stereo not shown) [Example 88, N-(3-methoxypropyl)-5-{2-[(3-methoxypropyl)carbamoyl]-1,3-dioxo-2,3-dihydro-1H-indene-5-carbonyl}-1,3-dioxo-2,3-dihydro-1H-indene-2-carboxamide], the IC50 was determined as 21000 nM.

As for `O=C(NCC1CCCO1)C1C(=O)c2ccc(S(=O)(=O)c3ccc4c(c3)C(=O)C(C(=O)NCC3CCCO3)C4=O)cc2C1=O` (stereo not shown) [Example 89, 5-[(1,3-dioxo-2-{[(oxolan-2-yl)methyl]carbamoyl}-2,3-dihydro-1H-inden-5-yl)sulfonyl]-1,3-dioxo-N-[(oxolan-2-yl)methyl]-2,3-dihydro-1H-indene-2-carboxamide], the inhibition at 5 µM was found to be 38% and the inhibition at 10 µM came out at 66%.

In the case of `COCCCNC(=O)C1C(=O)c2ccc(S(=O)(=O)c3ccc4c(c3)C(=O)C(C(=O)NCCCOC)C4=O)cc2C1=O` (stereo not shown) [Example 90, N-(3-methoxypropyl)-5-({2-[(3-methoxypropyl)carbamoyl]-1,3-dioxo-2,3-dihydro-1H-inden-5-yl}sulfonyl)-1,3-dioxo-2,3-dihydro-1H-indene-2-carboxamide], the IC50 was 4200 nM.

Turning to `Cc1ccc(NC(=O)C2C(=O)c3ccc(C(=O)c4ccc5c(c4)C(=O)C(C(=O)Nc4ccc(C)cc4)C5=O)cc3C2=O)cc1` (stereo not shown) [Example 91, N-(4-methylphenyl)-5-{2-[(4-methylphenyl)carbamoyl]-1,3-dioxo-2,3-dihydro-1H-indene-5-carbonyl}-1,3-dioxo-2,3-dihydro-1H-indene-2-carboxamide], the inhibition at 5 µM was found to be 20% and the inhibition at 10 µM was determined as 35%.

Regarding `Cc1ccc(NC(=O)C2C(=O)c3ccc(S(=O)(=O)c4ccc5c(c4)C(=O)C(C(=O)Nc4ccc(C)cc4)C5=O)cc3C2=O)cc1` (stereo not shown) [Example 92, N-(4-methylphenyl)-5-({2-[(4-methylphenyl)carbamoyl]-1,3-dioxo-2,3-dihydro-1H-inden-5-yl}sulfonyl)-1,3-dioxo-2,3-dihydro-1H-indene-2-carboxamide], the inhibition at 5 µM is 60% and the inhibition at 10 µM was found to be 65%.

Regarding `O=C(NCc1ccccc1)C1C(=O)c2ccc(S(=O)(=O)c3ccc4c(c3)C(=O)C(C(=O)NCc3ccccc3)C4=O)cc2C1=O` (stereo not shown) [Example 93, N-benzyl-5-{[2-(benzylcarbamoyl)-1,3-dioxo-2,3-dihydro-1H-inden-5-yl]sulfonyl}-1,3-dioxo-2,3-dihydro-1H-indene-2-carboxamide], the inhibition at 5 µM amounted to 70% and the inhibition at 10 µM turned out to be 75%.

Source of the values: patent publication US20250281424A1 (New York Blood Center, Inc, priority 2020, published 2025).
